Values of other authors, collected in paper PMC12084609, “Structural insights into small-molecule agonist recognition and activation of complement receptor C3aR” (The EMBO Journal, 2025).

Tested on: C3aR
Parameters: method as in Mathieu et al, 2005; Rodriguez et al, 2024
Conditions: blockade of calcium influx attributed to β-arrestin mediated internalization; ref Mathieu et al, 2005; Rodriguez et al, 2024; cited from earlier work

Compound: NC(N)=NCCC[C@H](NC(=O)COCC(c1ccccc1)c1ccccc1)C(=O)O [SB290157]
- activity at C3aR: potent agonist
